Source: patent US11739326B2, “RUNX1 inhibition for treatment of proliferative vitreoretinopathy and conditions associated with epithelial to mesenchymal transition” (The Schepens Eye Research Institute, Inc., priority 2017, dated 2023)
“Also recorded” adds a separate entry of the source.

What was measured:
C-PVR cells [1] = test: CyQuant cell proliferation assay in C-PVR cells; format: cell-based, human; settings: for percent live cells: C-PVR, Ro5-3335 100, 50, 25 μM, methotrexate 400, 100, 10 μM, alone or in combination vs vehicle
human PVR membranes = test: Human PVR membrane explant model in Matrigel; format: cell-based; settings: Ro5-3335 150 μM, combination with methotrexate 400 μM; for growth of human PVR membranes in explant model: vs control (DMSO)
Procedure: (§1) PVR membranes were freshly obtained from patients and placed in growth factor-reduced Matrigel (BD Biosciences) seeded in 24 well plates. 30 μl of matrigel were used to coat the bottom of 24 well plates without touching the edges of the well. After seeding the PVR membrane, explant plates were incubated in a 37° C. cell incubator without medium for 10 minutes in order for the Matrigel to solidify. 500 μl of medium was added to each well and incubated at 37° C. with 5% CO2. The explants were treated with RUNX1 inhibitor (Ro5-3335). Phase contrast photos of individual explants were taken daily.
as §1, with “from patients,” for “from patients and”, “(BD Biosciences), and” for “(BD Biosciences)”, “matrigel was” for “matrigel were”, “After seeding,” for “After seeding”, “PVR membrane” for “PVR membrane,”, “inhibitor (Ro5-3335) or a combination of Ro5-3335 and methotrexate.” for “inhibitor (Ro5-3335).”

ARPE-19 cells [2] = test: CyQuant cell proliferation assay in ARPE-19 cells; format: cell-based; settings: for percent live cells: Ro5-3335 100, 50, 25 μM, methotrexate 400, 100, 10 μM, alone or in combination vs vehicle
Procedure: (§2) ARPE 19 cells were cultured in 96 well plates for 8 hours, followed by treatment with RUNX1 inhibitor (Ro5-3335, Calbiochem) or Methotrexate (Sigma) in growth media or vehicle only for a period of 24 or 48 hours. The cells were washed and the CyQuant Direct nucleic acid stain was added and incubated at 37° C. in the incubator. Fluorescence read outs were measured at wavelengths as instructed in the protocol.

ARPE-19 cells [3] = test: Growth factor-induced EMT in ARPE-19 cells (morphology, marker immunofluorescence); format: cell-based; settings: TGFβ2, TNFα
Procedure: ARPE-19 cells were grown to confluence and maintained in 1% serum for 7-10 days (FIG. 22). Cells were treated with growth factors TGFβ2, TNFα and IL-6 (10 ng/ml each) for 3 days, with 150 μM RUNX1 inhibitor (Ro5-3335, Calbiochem) or without (e.g., vehicle). […] EMT was determined by morphological changes including cell shape.
Furthermore, treatment with RUNX1 small molecule inhibitor, Ro5-335, in ARPE-19 cells prevented EMT. This was assessed by the reduction in the epithelial marker, cytokeratin, and an increase in the mesenchymal markers such as fibronectin, and smooth muscle actin (FIGS. 23A and 23B). ARPE-19 cells were grown to confluence and maintained in 1% for 7-10 days. Cells were treated with TGFβ2, TNFα, and a combination of TGFβ2, TNFα and IL-6 (10 ng/ml each) for 3 days with or without 150 uM RUNX1 inhibitor (Ro5-3335, Calbiochem) or vehicle. Cells were washed and fixed with 4% paraformaldehyde for 10 minutes at room temperature. Cells were incubated with primary antibodies, mouse anti-cytokeratin (1:250; Abcam), or rabbit anti-fibronectin (1:500, Sigma) or smooth muscle actin (1:50; DAKO) overnight at 4° C. […]
ARPE-19 cells were grown to 60-70% confluence. […] EMT was determined by morphological changes (e.g., cell shape).

C-PVR cells [4] = test: Ki67 staining of C-PVR cells (cell number and proliferative capacity); format: cell-based, human; settings: Ro5-3335 150 μM, 48 hours, vs vehicle
Procedure: C-PVR (e.g., case 5) cells were transfected with the siRUNX1 or siScramble for 48 hours and washed and fixed with 4% paraformaldehyde for 10 minutes at room temperature. The cells were washed with PBS and blocked for an hour in (10% goat serum in PBS) incubated with rabbit anti-Ki67 antibody (1:50; Novus Biologicals) overnight at 4 degrees. Cells were incubated with secondary antibody goat anti-rabbit 594 (1:300; Life Technologies) for 2 hours along with DAPI, then were washed and imaged (FIG. 7A-7I; quantitation depicted in FIG. 8).
C-PVR cells (e.g., case 5) were cultured in 48 well plates for 24, followed by treatment with 150 μM RUNX1 inhibitor (Ro5-3335, Calbiochem), or vehicle only for a period of 48 hours. The cells were washed and fixed with 4% paraformaldehyde for 10 minutes at room temperature. The cells were washed with PBS and blocked for an hour in (10% goat serum in PBS) incubated with rabbit anti-Ki67 antibody (1:50; Novus Biologicals) overnight at 4 degrees. Cells were incubated with secondary antibody goat anti-rabbit 594 (1:300; Life Technologies) for 2 hours along with DAPI, washed, imaged and quantified using Image J (FIGS. 9A and 9B).
C-PVR cells (e.g., case 5) were cultured in 48 well plates for 24, followed by treatment with 150 μM RUNX1 inhibitor (Ro5-3335, Calbiochem), or vehicle only for a period of 48 hours. […]

C-PVR cells [5] = test: CyQuant cell proliferation assay in C-PVR cells; format: cell-based, human; settings: for proliferation / percent live cells of C-PVR cells: 72 hours, vs vehicle
Procedure: as §2
A CyQuant Cell Proliferation Assay was performed 48 and 72 hours post-treatment, with lenalidomide at 40 nM, and 80 nM. […] C-PVR cells were cultured in 96 well plates for 8 hours, followed by treatment with lenalidomide (Sigma-Aldrich) in growth media or vehicle only for a period of 48 or 72 hours. The cells were washed, and CyQuant Direct and nucleic acid stain was added and incubated at 37° C. Fluorescence read outs were measured at wavelengths as instructed in the protocol.

| Structure (SMILES) | efficacy at inhibiting growth of C-PVR cells compared to methotrexate (C-PVR cells [1]; 24 or 48 hours) | percent live cells (C-PVR cells [1]; 24 hours) | percent live cells (C-PVR cells [1]; 48 hours) | detachment of the branches from the primary tissue in human PVR explants (human PVR membranes) | branching, regression of branches and apoptosis in human PVR explants (human PVR membranes; vs DMSO) | growth of human PVR membranes in explant model (human PVR membranes) | growth of human PVR membranes in explant model (human PVR membranes; listed as Ro5-335) | efficacy at inhibiting growth of ARPE-19 cells compared to methotrexate (ARPE-19 cells [2]; 24 or 48 hours) | percent live cells (ARPE-19 cells [2]; ARPE-19, 24 hours) | percent live cells (ARPE-19 cells [2]; ARPE-19, 48 hours) | EMT determined by morphological changes including cell shape (ARPE-19 cells [3]; IL-6 (10 ng/ml each) 3 days, Ro5-3335 150 μM vs vehicle) | EMT assessed by cytokeratin, fibronectin and smooth muscle actin immunofluorescence (ARPE-19 cells [3]; combination with IL-6 (10 ng/mL each) 3 days, Ro5-3335 150 uM) | cell number and proliferative capacity of C-PVR cells (Ki67 staining) (C-PVR cells [4]) | cell number and proliferative capacity of C-PVR cells (Ki67 staining) (C-PVR cells [4]; listed as Ro5-335) | proliferation of C-PVR cells (C-PVR cells [5]; 40 nM, 48 hours) | proliferation / percent live cells of C-PVR cells (C-PVR cells [5]; 40 nM) | proliferation of C-PVR cells (C-PVR cells [5]; 80 nM, 48 hours) | proliferation / percent live cells of C-PVR cells (C-PVR cells [5]; 80 nM) | proliferation of C-PVR cells (C-PVR cells [5]; 40 and 80 nM, 48 and 72 hours (summary statement)) | proliferation of C-PVR cells (C-PVR cells [5]; 40 and 80 nM, 48 and 72 hours (summary statement), listed as Lenlidomide) |
| --- | --- | --- | --- | --- | --- | --- | --- | --- | --- | --- | --- | --- | --- | --- | --- | --- | --- | --- | --- | --- |
| O=C1CN=C(c2ccc[nH]2)c2cc(Cl)ccc2N1 [Ro5-3335] | more efficacious than treatment with methotrexate at inhibiting growth of C-PVR cells | significant reduction in percent live cells | significant reduction in percent live cells | Detachment of the branches from the primary tissue was also observed | apoptosis, less branching and a faster regression of the branches; also recorded: Less branching, a faster regression of the branches and apoptosis | significant reduction of human PVR; also recorded: no growth after 4 days; also recorded: reduced growth of human PVR membranes | reduced the growth of human PVR membranes; also recorded: now growth after four days | more efficacious at inhibiting growth of ARPE-19 cells; also recorded: more efficacious than treatment with methotrexate | significant reduction in percent live cells | significant reduction in percent live cells | either no or reduced EMT | prevented EMT | significant reduction in the cell number and proliferative capacity | significant reduction in the cell number and proliferative capacity |  |  |  |  |  |  |
| Nc1cccc2c1CN(C1CCC(=O)NC1=O)C2=O (stereo not drawn) [lenalidomide, 3-(7-amino-3-oxo-1H-isoindol-2-yl)piperidine-2,6-dione] |  |  |  |  |  |  |  |  |  |  |  |  |  |  | inhibited proliferation | significant reduction in percent live cells | inhibited proliferation | significant reduction in percent live cells | significantly reduced proliferation | inhibited proliferation |
| CN(Cc1cnc2nc(N)nc(N)c2n1)c1ccc(C(=O)N[C@@H](CCC(=O)O)C(=O)O)cc1 [methotrexate] |  | significant reduction in percent live cells | significant reduction in percent live cells |  |  |  |  |  | significant reduction in percent live cells | significant reduction in percent live cells |  |  |  |  |  |  |  |  |  |  |
